Source: patent US5728684A, “Determination of prodrugs metabolizable by the liver and therapeutic use thereof” (priority 1994, dated 1998)
Entries after “also recorded” stand apart in the source; their conditions may differ.

Assays:
[1] = test system: uninfected cells; conditions: Lewandowski et al. 1989; cited from earlier work
[2] = test system: IPdR oxidase; assay: Conversion of IPdR to IUdR by cell extracts (human liver); assay type: in vitro ADME; conditions: 3 samples
Method: (§1) Rat hepatic tissue was washed with ice-cold 1.15% KCl and blotted dry. The tissue was then homogenized with a tissue homogenizer, in a volume of 1.15% KCl that was 3 times the tissue weight, to form a 25% (w/v) homogenate. The homogenate was then centrifuged at 10,000 g for 10 minutes at 4° C. The resulting supernatant was filtered through Miracloth (similar to cheese cloth) then dialyzed overnight against 50 mM Tris-HCl buffer pH 7.5 and stored at -80° C. before use. Rat hepatocytes were obtained by a perfusion technique then the cells were extracted with 10 mM phosphate buffer, pH 7.5, containing 1M KCl and dialyzed for 4 hours against 50 mM Tris-HCl buffer pH 7.5.
For the standard assay condition, the reaction mixture contained 50 mM Tris-HCl, pH 7.5, 1 mM EDTA, 180 μM of IPdR (or its analogs) and approximately 0.01 mg protein of 10,000 g supernatant of tissue homogenate in a final volume of 500 μl and the incubation was at 37° C. for 10 minutes unless specified otherwise. 300 μl of reaction mixture was removed at the end of incubation and mixed with 630 μl acetonitrile then agitated. […] The samples were reconstituted to the original aliquot volume with the HPLC mobile phase buffer and analyzed on a Alltech RP-18 column. IPdR, IUdR and IU were detected at a UV absorption wavelength of 230 nm, and IPdR was also detected at a UV absorption wavelength of 335 nm. […]

[3] = test system: HSV-1; conditions: Lewandowski et al. 1989; cited from earlier work
[4] = test system: HSV-2; conditions: Lewandowski et al. 1989; cited from earlier work
[5] = test system: alcohol oxidase; assay: IPdR conversion by alcohol oxidase; assay type: biochemical; conditions: purified preparation
Excerpt: (§2) In order to determine which enzyme is responsible for the catalysts of this IPdR oxidation, a series of known oxido-reductases which have similar capability to oxidize a carbon atom with an adjacent amino group into a carbonyl functionality were explored for their ability to catalyze IPdR oxidation. […] A mixed function oxidase system prepared from the microsome of rat liver a broad spectrum of substrates and is NADPH dependent. […] Alcohol dehydrogenase (which can be obtained from Sigma) and alcohol oxidase (which can be obtained from Sigma) both reside in the soluble fraction of liver cell extracts, but the conversion of IPdR to […] was not detected with purified preparation of either enzyme under the same conditions that they converted their natural substrates effectively. […]

[6] = test system: bone marrow, gut and liver tissue; assay: Thymidine replacement in tissues of athymic nude mice; assay type: in vivo
Method: Mice were administered daily oral dosages of 0, 100, 250 and 500 mg/kg. Percent dThd replacement as indicative of IPdR incorporation into bone marrow, gut and liver tissue was assayed according to known methods. […] Results presented in FIG. 6 are mean percent thymidine replacement ± one standard error of the mean. N is greater or equal to 3 for each dose.

[7] = test system: IPdR oxidase; assay: Conversion of IPdR to IUdR by cell extracts (rat tissues); assay type: in vitro ADME
Method: as §1
For the standard assay condition, the reaction mixture contained 50 mM Tris-HCl, pH 7.5, 1 mM EDTA, 180 μM of IPdR (or its analogs) and approximately 0.01 mg protein of 10,000 g supernatant of tissue homogenate in a final volume of 500 μl and the incubation was at 37° C. for 10 minutes unless specified otherwise. 300 μl of reaction mixture was removed at the end of incubation and mixed with 630 μl acetonitrile then agitated. The precipitated protein were removed by centrifugation and the supernatant was lyophilized to dryness. The samples were reconstituted to the original aliquot volume with the HPLC mobile phase buffer and analyzed on a Alltech RP-18 column. IPdR, IUdR and IU were detected at a UV absorption wavelength of 230 nm, and IPdR was also detected at a UV absorption wavelength of 335 nm. The mobile phase was 10% acetonitrile/90%mM ammonium acetate, pH 6.8 and the flow rate was 1 ml/minute. Standard curves of IPdR and IUdR were established from the integration value of known concentrations.
(§3) Differential fractionation centrifugation was used in an attempt to localize this IPdR conversion enzyme activity in the liver homogenate. The enzyme activity assay was performed on each fraction. […] Further purification was achieved by use of DEAE cellulose column chromatography, blue Sepharose column chromatography and glycerol gradient centrifugation in this order. This IPdR oxidase activity was purified 380 fold starting from the crude extracts of rat liver. The partially purified enzyme catalyzed IUdR synthesis at a rate of 3.8 μmoles per minute per milligram of protein at 37° C. under these conditions. The apparent molecular weight of this enzyme in both rats and humans as determined by centrifugation on a 20 to 40% glycerol gradient is approximately 280,000 dalton. Neither cofactor nor divalent cations requirement has been found for the rat liver enzyme or the human liver enzyme.
Tissue specificity of the conversion of IPdR

[8] = test system: liver and tumor tissue; assay: Thymidine replacement in liver and tumor tissue of athymic nude mice having metastatic tumors; assay type: in vivo; conditions: 100, 250, 500 mg/kg/d (FIG. 7)
Method: Mice were administered daily dosages of 0, 100, 250 and 500 mg/kg/d to determine thymidine replacement in liver and tumor tissue. The results presented in FIG. 7 are presented as mean percent thymidine replacement ± one standard error of the mean. n≥3 (control tumors n=2).

[9] = test system: IPdR oxidase; assay: IUdR synthesis by partially purified IPdR oxidase; assay type: biochemical; conditions: 37° C., rat liver enzyme purified 380 fold
Method: as §3

[10] = test system: mixed function oxidase system; assay: IPdR oxidation by mixed function oxidase system from rat liver microsomes; assay type: in vitro ADME; conditions: with or without NADPH
Excerpt: as §2

O=c1ncc(I)cn1[C@H]1C[C@H](O)[C@@H](CO)O1 [IPdR, 1-(2-deoxy-β-D-ribofuranosyl)-5-(iodo)-2-pyrimidinone]
toxicity to uninfected cells [1]: not toxic | Specific activity of the conversion of IPdR to IUdR [2]: 2-7 n mole/mg protein/min | activity against HSV-1 in cell culture [3]: potent activity | activity against HSV-2 in cell culture [4]: potent activity | conversion of IPdR by alcohol oxidase [5]: not detected | incorporation of IUdR into liver ([6]; oral, 100, 250, 500 mg/kg daily): No incorporation of IUdR into liver was found | percent thymidine replacement in bone marrow and gut ([6]; oral, 100, 250, 500 mg/kg daily (FIG. 6)): relatively low; also recorded: relatively small amounts | IPdR oxidase specific activity of hepatocyte extracts ([7]; compared with whole liver extract): very similar specific activity | Specific activity of the conversion of IPdR to IUdR ([7]; hepatocyte (rat), 3 samples): 5-11 n mole/mg protein/min | Specific activity of the conversion of IPdR to IUdR ([7]; intestine (rat), 3 samples, conversion not detected): < 0.02 n mole/mg protein/min | Specific activity of the conversion of IPdR to IUdR ([7]; kidney (rat), 3 samples): 0.8-1.6 n mole/mg protein/min | Specific activity of the conversion of IPdR to IUdR ([7]; liver (rat), 5 samples): 5-15 n mole/mg protein/min | Specific activity of the conversion of IPdR to IUdR ([7]; lung (rat), 3 samples, conversion not detected): < 0.02 n mole/mg protein/min | IPdR oxidase activity in extracts of kidney and spleen ([7]; rat kidney and spleen extracts, compared with liver): much less active | IPdR oxidase activity in lung or intestine extracts ([7]; rat lung or intestine extracts): cannot be detected | Specific activity of the conversion of IPdR to IUdR ([7]; spleen (rat), 3 samples): 0.2-0.5 n mole/mg protein/min | percent thymidine replacement in tumor [8]: increasing tumor incorporation; also recorded: increasing percent replacement | percent incorporation in liver ([8]; normal liver): negligible; also recorded: very small percent incorporation | rate of IUdR synthesis by partially purified enzyme [9]: 3.8 μmoles per minute per milligram of protein | IPdR oxidase activity of rat liver microsomal fraction [10]: no IPdR oxidase activity
